From US11419801B2, “Personal care composition” (Conopco, Inc., priority 2017, dated 2022)

These compounds were tested on IL-6 (assay: Anti-inflammation efficacy in THP-1 in vitro assay: IL-6 in supernatant of PMA-differentiated, LPS-stimulated THP-1 monocytes (BD Elisa kit)). Details: Table 1, LPS 1 μg/ml, 24 hours incubation, concentration of active(s) as given per example, lower = higher anti-inflammatory potential.
Format: cell-based
Protocol: The following procedure was used to test the anti-inflammation efficacy of the various actives alone as well as in combination. In the examples, HR means hexyl resorcinol, DHA means docosahexaenoic acid. • (i) 5×10^5 THP-1 monocytes were placed into 24-well plates, with 100 nM […] in the culture media to differentiate the cells. • (ii) After 72 hours differentiation, treatments as follows were applied to the cells. […] (2) LPS-1 μg/ml; (3) Dex-50 nM; (4) DHA-200 μM; (5) DHA-100 μM; (6) DHA-20 μM; (7) HR-50 μM; (8) HR-25 μM; (9) HR-100 μM; […] (11) DHA-100 μM+HR-50 μM; (12) DHA-100 μM+HR-25 μM; (13) DHA-20 μM+HR-100 μM (14) DHA-20 μM+HR-10 μM. • (iii) After 24 hours incubation the supernatants were collected. • (iv) Then IL-6 concentration was tested in the supernatant by BD Elisa kit. The lower the percentage, the higher the anti-inflammatory potential. […] Further information about the experiment nos 12 to 24 is as follows: • Example 12: […] Combination of 50 μM DHA and 12.5 μM of HR. • Example 23: […] Combination of 50 μM DHA and 12.5 μM of ZnCl2. • Example 31: […] Combination of 12.5 μM DHA and 3.125 μM of ZnCl2. Experiments were carried out, according to the procedure described earlier, at various concentrations of DHA along with certain other actives outside the invention viz. BOP (benzoyl peroxide) and SDS (sodium dodecyl sulphate). These actives have been disclosed as additional ingredients in EP0138480 A1. The data below is expressed in % IL-6 inhibition rate in Table-3 below. • Example 33, 34, 35, 36: […] Combination of 50 μM DHA and 12.5 μM of BPO. • Example 43: […] Combination of 12.5 μM DHA and 3.125 μM of BPO. • Example 45, 46, 47, 48: […] Combination of 50 μM DHA and 12.5 μM of SDS. • Example 51: […] Combination of 12.5 μM DHA and 3.125 μM of SDS.

SMILES | concentration of IL-6 as a % of that obtained for LPS (% of LPS) [%]
CC/C=C\C/C=C\C/C=C\C/C=C\C/C=C\C/C=C\CCC(=O)O [Example 3, docosahexaenoic acid] | 58.5
CCCCCCc1ccc(O)cc1O [Example 5, hexyl resorcinol] | 54.5
CCCCCCc1ccc(O)cc1O [Example 7, hexyl resorcinol] | 63.1
CCCCCCc1ccc(O)cc1O [Example 6, hexyl resorcinol] | 41.1
CCCCCCc1ccc(O)cc1O [Example 4, hexyl resorcinol] | 41.1
CC/C=C\C/C=C\C/C=C\C/C=C\C/C=C\C/C=C\CCC(=O)O [Example 2, docosahexaenoic acid] | 14.7

Same assay, conditions: Table 2, LPS 1 μg/mL, DHA, HR, ZnCl2 alone and combined, concentration per example

SMILES | % of LPS (IL-6) [%]
[Cl-].[Cl-].[Zn+2] [Example 26, Zinc chloride] | 96.3
CC/C=C\C/C=C\C/C=C\C/C=C\C/C=C\C/C=C\CCC(=O)O [Example 13, docosahexaenoic acid] | 9.9
CC/C=C\C/C=C\C/C=C\C/C=C\C/C=C\C/C=C\CCC(=O)O [Example 16, docosahexaenoic acid] | 63.1
CCCCCCc1ccc(O)cc1O [Example 20, hexyl resorcinol] | 66.4
[Cl-].[Cl-].[Zn+2] [Example 27, Zinc chloride] | 97.7
CCCCCCc1ccc(O)cc1O [Example 18, hexyl resorcinol] | 55.4
CC/C=C\C/C=C\C/C=C\C/C=C\C/C=C\C/C=C\CCC(=O)O [Example 15, docosahexaenoic acid] | 48.8
CC/C=C\C/C=C\C/C=C\C/C=C\C/C=C\C/C=C\CCC(=O)O [Example 14, docosahexaenoic acid] | 29.0
CCCCCCc1ccc(O)cc1O [Example 19, hexyl resorcinol] | 60.3
[Cl-].[Cl-].[Zn+2] [Example 25, Zinc chloride] | 93.4
CCCCCCc1ccc(O)cc1O [Example 17, hexyl resorcinol] | 43.0
[Cl-].[Cl-].[Zn+2] [Example 28, Zinc chloride] | 91.6

Same assay, conditions: Table 3, LPS 1 μg/mL, DHA, BPO, SDS alone and combined, concentration per example

SMILES | % of LPS (IL-6) [%]
O=C(OOC(=O)c1ccccc1)c1ccccc1 [Example 38, benzoyl peroxide] | 100.6
CC/C=C\C/C=C\C/C=C\C/C=C\C/C=C\C/C=C\CCC(=O)O [Example 36, docosahexaenoic acid] | 72.0
CC/C=C\C/C=C\C/C=C\C/C=C\C/C=C\C/C=C\CCC(=O)O [Example 35, docosahexaenoic acid] | 56.8
O=C(OOC(=O)c1ccccc1)c1ccccc1 [Example 39, benzoyl peroxide] | 102.7
O=C(OOC(=O)c1ccccc1)c1ccccc1 [Example 37, benzoyl peroxide] | 103.4
CC/C=C\C/C=C\C/C=C\C/C=C\C/C=C\C/C=C\CCC(=O)O [Example 33, docosahexaenoic acid] | 10.7
O=C(OOC(=O)c1ccccc1)c1ccccc1 [Example 40, benzoyl peroxide] | 95.1
CC/C=C\C/C=C\C/C=C\C/C=C\C/C=C\C/C=C\CCC(=O)O [Example 34, docosahexaenoic acid] | 36.0

Same assay, conditions: Table 3, LPS 1 μg/mL, DHA, BPO, SDS alone and combined, concentration per example, sulphate

SMILES | % of LPS (IL-6) [%]
CCCCCCCCCCCCOS(=O)(=O)[O-].[Na+] [Example 46, sodium dodecyl sulphate] | 86.1
CCCCCCCCCCCCOS(=O)(=O)[O-].[Na+] [Example 45, sodium dodecyl sulphate] | 84.6
CCCCCCCCCCCCOS(=O)(=O)[O-].[Na+] [Example 48, sodium dodecyl sulphate] | 80.5
CCCCCCCCCCCCOS(=O)(=O)[O-].[Na+] [Example 47, sodium dodecyl sulphate] | 81.3
